From patent US6821954B2, “Compounds and uses thereof in treating bone disorders” (Auckland UniServices Limited, priority 1997, dated 2004)
Bridge positions count the residues as written; N and C are the ends. Ends that are not written are not given here. Peptide text beside a SMILES is read from it.

What was measured:
[1] = test system: fetal rat osteoblasts; assay: Osteoblast proliferation studies (cell counts and [3H]-thymidine incorporation) in osteoblast-like cell culture; assay type: cell-based; conditions: for effect on osteoblast cell number / effect on thymidine incorporation / proliferative effect on osteoblasts: 10^−9 M; for effect on osteoblast cell number: 24 h incubation; for effect on osteoblast cell number / effect on thymidine incorporation: FIG. 1; for effect on thymidine incorporation: last two hours of 24 h incubation; for EC50: read-out: half-maximally effective concentration on cell number; for proliferative effect on osteoblasts: cell number and thymidine incorporation; for concentration that completely blocked the proliferative effect of intact amylin: intact amylin 10^−9 M, cell number, FIG. 4; for blocking of the action of intact amylin on cell number / blocking of the action of intact amylin on thymidine incorporation: equimolar concentrations (10^−9 M), FIG. 5, FIG. 9; for blocking of the effects of amylin-(1-8) on osteoblast proliferation: equimolar concentrations
Procedure: Osteoblasts were isolated by collagenase-digestion from 20-day fetal rat calvariae. Calvariae were dissected aseptically and the frontal and parietal bones were stripped of their periosteum. only the central portions of the bones, free from sutrue tissue, were collected. The calvariae were treated twice with phosphate buffered saline (PBS) containing 3 mM EDTA (pH 7.4) for 15 minutes at 37E C. in a shaking water bath. After washing once in PBS, the calvariae were treated twice with 3 ml of 1 mg/ml collagenase for 7 minutes at 37E C. After discarding the supernatants from digestions I and II, the calvariae were treated a further twice with 3 ml of 2 mg/ml collagenase (30 mins, 37E C.). The supernatants of digestions III and IV were pooled, centrifuged, and the cells washed in Dulbecco's modified Eagle's medium (DME) with 10% fetal calf serum (FCS), suspended in further DME/10% FCS and placed in 75 cm^2 flasks. The cells were incubated under 5% CO2 and 95% air at 37E C. Confluence was reached by 5-6 days, at which time the cells were subcultured. After trypsinization using trypsin-EDTA (0.05%/0.53 mM), the cells were rinsed in minimum essential medium (MEM) with 5% FCS and resuspended in fresh medium, the seeded at 5×10^4 cells/ml in 24-well plates (0.5 ml cell suspension per well, i.e. 2.5×10^4 cells/well).
Proliferation studies (cell counts and thymidine incorporation) were performed in subconfluent cell populations, 24 h after subculturing cells were changed to serum-free medium with 0.1% bovine serum albumin plus the experimental compounds. Cell numbers were analysed 24 hours after addition of the peptide or vehicle by detaching cells form the wells by exposure to trypsin/EDTA (0.05%/0.53 mM) for approximately 5 minutes at 37E C. Counting was performed in a hemocytometer chamber. Results are expressed per well. [^3H]-Thymidine incorporation into actively-growing and growth-arrested cells was assessed by pulsing the cells with [^3H]-thymidine ([…]) two hours before the end of the experimental incubation. Experiments were terminated at 24 hours by washing the cells in MEM followed by the addition of 10% trichloroacetic acid. The precipitate was washed twice with ethanol:ether (3:1) and the wells desiccated at room temperature. The residue was redissolved in 2 M KOH at 55E C. for 30 mins, neutralized with 1 M HCI, and an aliquot counted for radioactivity. Results are expressed as dpm per well. For cell counts and thymidine incorporation, each experiment was performed at least four different times using experimental groups consisting of at least six wells.

[2] = test system: neonatal mouse calvariae; assay: Bone resorption in bone organ culture (45Ca release); assay type: cell-based; conditions: for effect on basal bone resorption: 10^−8 M, calcium release, FIG. 6
Procedure: Bone resorption studies were carried out in neonatal mouse calvariae as described previously. Mice were injected subcutaneously with […] at 2 days of age, and hemicalvariae were dissected out four days later. Hemicalvariae were pre-incubated for 24 hours in medium 199 with 0.1% bovine serum albumin, then changed to fresh medium containing peptide or vehicle. Incubation was continued for a further 48 hours. There were 5-7 hemicalvariae in each group.

[3] = Catabolism of peptides in calvarial organ culture (pre-incubation, then test on osteoblast proliferation); assay type: in vitro ADME, mouse; conditions: for effect of pre-incubation for two hours on osteoblastic activity: pre-incubation in calvarial organ culture 2 hours; for effect of pre-incubation for two hours on osteoblastic activity / osteoblastic activity after pre-incubation for four or more hours: cell number or thymidine incorporation, FIG. 7; for osteoblastic activity after pre-incubation for four or more hours: pre-incubation in calvarial organ culture four or more hours; for ability to block amylin's stimulation of osteoblast proliferation after pre-incubation: pre-incubation with calvariae for six hours, FIG. 8
Procedure: To determine whether the various peptide fragments underwent significant catabolism in organ culture, they were incubated with calvariae before being added to osteoblast cultures. The organ cultures were set up using hemicalvariae from animals that had not be pretreated with ^45Ca. The fragments or vehicle were incubated with the calvariae for 2, 4, or 6 hours. Extracts of the media were removed then immediately added to osteoblast cultures for measurement of their effects on osteoblast proliferation, as described above.

[4] = test system: osteoblasts; conditions: background section; cited from earlier work
[5] = listed as amylin (1-8) with 2 to 7 disulphide bond removed

| Compound | effect on osteoblast cell number [1] | effect on thymidine incorporation [1] | EC50 ([1]; 24 h, FIG. 2) [nM] | effect on basal bone resorption [2] | effect of pre-incubation for two hours on osteoblastic activity [3] | osteoblastic activity after pre-incubation for four or more hours [3] | concentration that completely blocked the proliferative effect of intact amylin [1] | ability to block amylin's stimulation of osteoblast proliferation after pre-incubation [3] | proliferative effect on osteoblasts [1] | blocking of the action of intact amylin on cell number [1] | blocking of the action of intact amylin on thymidine incorporation [1] | also measured |
| --- | --- | --- | --- | --- | --- | --- | --- | --- | --- | --- | --- | --- |
| C[C@H](NC(=O)[C@@H]1CSSC[C@H](NC(=O)[C@@H](N)CCCCN)C(=O)N[C@@H](CC(N)=O)C(=O)N[C@@H]([C@@H](C)O)C(=O)N[C@@H](C)C(=O)N[C@@H]([C@@H](C)O)C(=O)N1)C(N)=O [Amylin-(1-8), Lysine-c[cysteine-asparagine-threonine-alanine-threonine-cysteine]-alanine-NH2] (H-KCNTATCA-NH2; disulfide 2-7) | consistently stimulated | consistently stimulated | 0.24 | lack of effect | no effect | completely lost their activity |  |  |  |  |  | effect on osteoblast cell number ([1]; listed as (1-8) fragment): stimulated both indices; effect on thymidine incorporation ([1]; listed as (1-8) fragment): stimulated both indices; concentrations at which the maximal effect on cell number was seen ([1]; 24 h, FIG. 2): ≥ 10^−9 M; maximal effect on cell number compared with intact amylin ([1]; 24 h, FIG. 2): not significantly less than that produced by the intact molecule; proliferative effect on osteoblasts ([1]; listed as Amylin (1-8)): active; proliferative effect on osteoblasts ([1]; listed as amylin-(1-8)): stimulates osteoblast proliferation; effect on bone resorption, multiple additions ([2]; additions at 0, 8 and 30 hours, data not shown): did not influence bone resorption |
| Amylin-(8-37): rat amylin fragment 8-37; functions as an amylin antagonist in other tissues |  |  |  |  |  |  | ≥ 10^−10 M | decreased their ability to block |  |  |  |  |
| Amylin: 37-amino acid peptide co-secreted with insulin from the beta cells of the pancreatic islets; rat amylin used | significant increase | significant increase | 0.02 | inhibited basal bone resorption | no effect | completely lost their activity |  |  |  |  |  | concentrations giving dose-dependent stimulation of osteoblast proliferation [4]: ≥ 10^−11 M |
| CGRP-(8-37): the comparable (8-37) peptide fragment from CGRP (calcitonin gene-related peptide) (VTHRLAGLLSRSGGVVKNNFVPTNVGSKAF; ends and bridges not checked) |  |  |  |  |  |  | > 10^−8 M |  |  |  |  |  |
| Reduced Amylin: Rat amylin reduced with dithiothreitol (2-7 disulphide removed) |  |  |  |  |  |  |  | decreased their ability to block | no proliferative effect | effective blockers | effective blockers |  |
| Reduced amylin (1-8): amylin (1-8) reduced with dithiothreitol, 2 to 7 disulphide bond removed (KCNTATCA; Islet amyloid polypeptide reduced, disulphide removed; UniProt P12969 38-45, looked up, fragment) |  |  |  |  |  |  |  |  | no proliferative effect | effective blocker | effective blocker | proliferative effect on osteoblasts [1, 5]: inactive; blocking of the effects of amylin-(1-8) on osteoblast proliferation [1]: effective blocker; blocking of the effects of amylin-(1-8) on osteoblast proliferation [1, 5]: blocks the activity of amylin (1-8); blocking of amylin's inhibition of bone resorption ([2]; with amylin): did not act as a blocker |
